Marks after values point to notes of the source that are not given here.
Key:
[1] = system: HP12; test: UV melting of PNA:PNA duplex with primary probe HP12; type: physicochemical; conditions: UV 260 nm, 20-95 °C at 1 °C/min, 5 μM each probe, 10 mM phosphate buffer, 10 mM KCl, pH 7.4
Description: The melting temperatures of secondary probes after duplex formation with primary probes were also measured by monitoring the absorbance at 260 nm as a function of temperature (see Figure S23). All probe pairs had melting temperatures well above 37 °C (body temperature) and ranged from 51 °C for the HP6:HP19 pair with 6 complementary bases to 82 °C for the previously studied HP15:HP18 pair with 15 complementary bases (see Figure 3B and Table 2). […] This secondary structure is typically adopted by antiparallel and L-amino acid-modified PNA–PNA duplexes at neutral pH.[49]
Figure S23: Normalized temperature melting profiles from 20–95°C for different primary and secondary probe pairs. UV melting curves at 260 nm. (A) HP15 (15-mer) toward secondary 15-, 12- and 9-mers. (B) HP12 (12-mer) toward secondary 12-, 9-, 8-, 7- and 6-mers. (C) HP9 (9-mer) toward secondary 9-, 8-, 7- and 6-mers. (D) HP6 (6-mer) toward secondary 6-mer.
Concentrations of duplexes in A–D are 5 μM in 10 mM […] with 10 mM KCl at pH 7.4.
(also on this page, place not known: Fraction melted Fraction meltedFraction melted Fraction melted) […]
Supplementary Material and methods […]
Biophysical characterization of PNA:PNA duplexes using CD Spectroscopy and […]
Circular dichroism (CD) and UV melts of PNA:PNA duplexes were measured on a CD spectrometer (Applied Photophysics, Leatherhead, UK) with Peltier temperature control and an external temperature probe. RP-HPLC purified and lyophilized PNA probes were dissolved in 10 mM phosphate buffer with 10 mM KCl at pH 7.4. Samples contained both primary and complementary secondary PNA probes at a final concentration of 5 µM for each probe. These samples were initially heated to 95°C for five minutes, allowed to cool to room temperature, and then transferred to a quartz cuvette with a 1.0 cm path length. A temperature probe was inserted into the solution through the cuvette's rubber cap. […]
from 20°C to 95°C with a 1°C/min temperature gradient. Simultaneously, the UV absorbance at 260 nm was recorded as a function of temperature. Fraction melted data was calculated […]
Fraction melted = 1 ― UVds― UVss , where UVss and UVds are the UV absorbances at 95°C and 20°C, respectively. The melting temperature (Tm) was determined as the maximum of the first derivative of the melting curve and was computed using the Global 3 analysis software (Applied Photophysics, […]
CD spectra in the range of 200–300 nm were recorded for all hybridized PNA:PNA pairs at 20°C before and after the UV melting experiments. All CD spectra were baseline subtracted and presented as an average of five scans.

[2] = target: Z-HP9; test: SPR off-rate screening (single-cycle kinetics), immobilized Z-HP9; type: binding; conditions: primary probe HP9 (immobilized Z-HP9), 25 °C, PBS-T pH 7.4, 120 nM HP16/HP20 or 362 nM HP21/HP19, dissociation 150 min, 1:1 model, duplicates
Description: (§1) The stability of new pretargeting probe combinations was assessed using SPR, and duplex melting temperatures were measured with UV–vis spectroscopy. In SPR, a high concentration of the secondary probe was injected over immobilized primary agents, and the dissociation of the hybridized complexes was monitored over 150 min (see Figures 3A, S22, and Table 2).
(§2) We utilized SPR on a Biacore T200 instrument (Cytiva) to examine how secondary PNA probes (6-mer HP19, 7-mer HP21, 8-mer HP20, and 9-mer HP16) bind to primary agents. These experiments were conducted using dextran-coated CM5 sensor chips and PBS-T buffer at pH 7.4. The ligands were immobilized through a standard EDC/NHS coupling method, and the chip surface was sealed with ethanolamine. A reference surface with no primary agent was also included.
(§3) For ranking the off-rate (kd) of the secondary probes, we employed single-cycle kinetics (SCK) at 25 °C with a flow rate of 50 μL/min. […] Secondary PNA probes were injected at various concentrations, and dissociation was monitored for 10,000 s. To regenerate the chip surface, we used two 30 s injections of 10 mM glycine-HCl, pH 1.5.
(§4) All SPR experiments were performed in duplicate, and data analysis was conducted using the Biacore T200 Evaluation software version 2.0 with a 1:1 binding model.
(§5) Figure S22: Representative SPR sensorgrams of the dissociation phase of HP16 (9-mer), HP20 (8-mer), HP21 (7-mer) and HP19 […]
(§6) After injection with the secondary probe
(§7) (120 nM of HP16 and HP20 or 362 nM of HP21 and HP19) the dissociation of the formed complex was followed for 150 minutes. All experiments were done in duplicates, and the data presented is double-referenced (reference channel and buffer injection are subtracted).
(§8) (1 picture or pasted object on this page, not shown here)

[3] = target: Z-HP15; test: SPR off-rate screening (single-cycle kinetics), immobilized Z-HP15; type: binding; conditions: primary probe HP15 (immobilized Z-HP15), 25 °C, PBS-T pH 7.4, 120 nM HP16/HP20 or 362 nM HP21/HP19, dissociation 150 min, 1:1 model, duplicates
Description: as §1, §2, §3, §4, §5, §6, §7, §8

[4] = cited from earlier work
Description: Table 4 ^177Lu-Labeling of PNA-Based Probes and In Vitro Stability | column: stability in PBS, 37 °C, 1 h; stability (×500 EDTA), 37 °C, 1 h

Molecule | Tm [1] [°C] | kd [2] | kd [3] | stability (×500 EDTA), 37 °C, 1 h [4] | stability in PBS, 37 °C, 1 h [4]
DOTA-AEEA-SS-aacaccagg-EEY-NH2 [HP16, 9-mer secondary PNA probe with DOTA] | 68 | 2.5 × 10^–5 s^–1 | 1.2 × 10^–5 s^–1 | – | –
NC(=O)[C@H](Cc1ccc(O)cc1)NC(=O)[C@H](CCC(=O)O)NC(=O)[C@H](CCC(=O)O)NC(=O)CN(CCNC(=O)CN(CCNC(=O)CN(CCNC(=O)CN(CCNC(=O)CN(CCNC(=O)CN(CCNC(=O)CN(CCNC(=O)CN(CCNC(=O)CN(CCNC(=O)[C@H](CO)NC(=O)[C@H](CO)NC(=O)COCCOCCNC(=O)CN1CCN(CC(=O)O)CCN(CC(=O)O)CCN(CC(=O)O)CC1)C(=O)Cn1cnc2c(N)ncnc21)C(=O)Cn1cnc2c(N)ncnc21)C(=O)Cn1ccc(N)nc1=O)C(=O)Cn1cnc2c(N)ncnc21)C(=O)Cn1ccc(N)nc1=O)C(=O)Cn1ccc(N)nc1=O)C(=O)Cn1cnc2c(N)ncnc21)C(=O)Cn1cnc2c(=O)[nH]c(N)nc21)C(=O)Cn1cnc2c(=O)[nH]c(N)nc21 [[^177Lu]Lu-HP16, metal not drawn] | – | – | – | 100 ± 0 ^a | 100 ± 0 ^a

Source: article PMC11091976, “Shorter Peptide Nucleic Acid Probes Improve Affibody-Mediated Peptide Nucleic Acid-Based Pretargeting” (ACS Pharmacology & Translational Science, 2024)
